Measurements from ChEMBL document CHEMBL1141350, “Pentaketides relating to aspinonene and dihydroaspyrone from a marine-derived fungus, Aspergillus ostianus” (2007).
Calls of active or inactive are those of the source. The calls are words filed in the database; no cut-off is given here.

Key:
Staphylococcus aureus = test: Antibacterial activity against methicillin-resistant Staphylococcus aureus at 100 ug/disc; format: functional, organism-based
L1210 = test: Cytotoxicity against mouse L1210 cells at 25 ppm; format: functional

Structure (SMILES)	Activity (Staphylococcus aureus)	inhibition at 25 ppm (L1210)	Activity (L1210)
CC(=O)/C=C/C(=C/[C@H](C)O)CO	inactive		
C[C@H](O)/C=C/[C@@](O)(CO)[C@@H]1O[C@H]1C [ASPINONENE]	inactive	27%	
C[C@H](O)CC1=C[C@H](O)[C@@H](C)OC1=O	inactive		
CO[C@](C(=O)O[C@@H](C)CC1=C[C@H](O)[C@@H](C)OC1=O)(c1ccccc1)C(F)(F)F		25%	
C[C@H](O)/C=C(/C=C/[C@@H](C)O)CO	inactive		inactive
C[C@H](O)/C=C(/C=C/[C@H](C)O)CO	inactive		
